Laboratory results from patent US20240293413A1, “COMPOUND AND METHOD FOR TREATING CHEMOTHERAPY-RELATED GASTROINTESTINAL SIDE EFFECTS” (ONQUALITY PHARMACEUTICALS CHINA LTD., priority 2021, published 2024).

Assays:
Assay type in all cases: in vivo
[1] = system: diarrhea caused by a chemotherapeutic agent in Balb/c mice; assay: Examples 343-381 (Table 6): oral versus intravenous CDK inhibitor, relief of diarrhea caused by a chemotherapeutic agent;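 also: percent of treated mice whose diarrhea grade fell below chemotherapy-group average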
How it was run: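 Balb/c mice (10 per group) received the CDK inhibitor orally or by tail-vein injection, or vehicle, followed by a chemotherapeutic agent or its solvent. Diarrhea grade was scored daily.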

[2] = system: diarrhea caused by the continuous administration of a chemotherapeutic agent in Balb/c mice; assay: Examples 444-469 (Table 9): oral CDK inhibitor, diarrhea caused by continuous administration of a chemotherapeutic agent; details: CDK inhibitor oral 150 mg/kg once a day
Description: Balb/c mice were fed for 1 week, and then divided into groups. The experiment was divided into a control group, a chemotherapeutic agent group, and a CDK inhibitor group, each of which comprised 10 mice, to perform the administration experiment, for which the administration dosage, mode, time and frequency were shown in Table 9. The control group: being intragastrically administered with the same solvent as that used in the CDK inhibitor group (the time was shown in Table 9), and then being injected/intragastrically administered with the same solvent as that used in the chemotherapeutic agent group (the administration mode was shown in Table 9): the chemotherapeutic agent group: being intragastrically administered with the same solvent as that used in the CDK inhibitor group (the time was shown in Table 9), and then being injected/intragastrically administered with the chemotherapeutic agent (the type, administration mode, dosage and duration time were shown in Table 9): the CDK inhibitor group: being intragastrically administered with the CDK inhibitor (the time was shown in Table 9), and then being administered with the chemotherapeutic agent (the type, administration mode, dosage and duration time were shown in Table 9).
The scoring of diarrhea can refer to the method of Akinobu Kurita (Cancer Chemother Pharmacol 2000: 46:211-20.), Grade 0: normal feces: Grade 1: mild diarrhea, the stools is slightly wet and soft: Grade 2: moderate diarrhea, loose stools and mild perianal contamination: Grade 3: severe diarrhea, watery stools and accompanied by severe perianal staining (see FIG. 1). It is regarded as effective remission when the diarrhea grading of mice in the CDK inhibitor group is reduced compared with the average diarrhea grading of mice in the chemotherapeutic agent group.
The diarrhea grading of mice was observed and recorded every day. At the end of the experiment, the number of mice in the CDK inhibitor group whose diarrhea grading was lower than that of mice in the chemotherapeutic agent group was recorded. Table 9 lists various animal experiment combinations of chemotherapeutic agents and CDK inhibitors, as well as the corresponding experimental results. (Relative remission rate %=the number of mice in the CDK inhibitor group whose diarrhea has been effectively relieved/the total number of mice in the CDK inhibitor group*100%. The establishment rate of diarrhea model in the chemotherapeutic agent group was 50%-80%, that is, about 5-8 of 10 mice developed diarrhea during the experiment, and there were cases of individual mice death or not developing diarrhea.)

[3] = system: Chemotherapeutic agent-caused diarrhea models of Balb/c mice; assay: Examples 1-229 (Table 3): oral CDK inhibitor, relief of diarrhea caused by a chemotherapeutic agent;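 also: percent of treated mice whose diarrhea grade fell below chemotherapy-group average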

Structure (SMILES): CC(=O)c1c(C)c2cnc(Nc3ccc(N4CCNCC4)cn3)nc2n(C2CCCC2)c1=O [Palbociclib]
- Relative remission rate ([1]; Example 343, Etoposide intravenous injection 75 mg/kg single, CDK inhibitor intravenous injection 150 mg/kg single, 0.5 h before chemotherapeutic agent, cycle 8 days): 10%
- Relative remission rate ([1]; Example 343, Etoposide intravenous injection 75 mg/kg single, CDK inhibitor oral 150 mg/kg single, 0.5 h before chemotherapeutic agent, cycle 8 days): 40%
- Relative remission rate ([1]; Example 344, Etoposide intravenous injection 75 mg/kg single, CDK inhibitor intravenous injection 150 mg/kg single, 4 h before, cycle 8 days): 10%
- Relative remission rate ([1]; Example 344, Etoposide intravenous injection 75 mg/kg single, CDK inhibitor oral 150 mg/kg single, 4 h before, cycle 8 days): 80%
- Relative remission rate ([1]; Example 345, Etoposide intravenous injection 75 mg/kg single, CDK inhibitor intravenous injection 150 mg/kg single, 8 h before, cycle 8 days): 10%
- Relative remission rate ([1]; Example 345, Etoposide intravenous injection 75 mg/kg single, CDK inhibitor oral 150 mg/kg single, 8 h before, cycle 8 days): 60%
- Relative remission rate ([1]; Example 346, Etoposide intravenous injection 75 mg/kg single, CDK inhibitor intravenous injection 150 mg/kg single, 12 h before, cycle 8 days): 20%
- Relative remission rate ([1]; Example 346, Etoposide intravenous injection 75 mg/kg single, CDK inhibitor oral 150 mg/kg single, 12 h before, cycle 8 days): 60%
- Relative remission rate ([1]; Example 347, Etoposide intravenous injection 75 mg/kg single, CDK inhibitor intravenous injection 150 mg/kg single, 24 h before, cycle 8 days): 10%
- Relative remission rate ([1]; Example 347, Etoposide intravenous injection 75 mg/kg single, CDK inhibitor oral 150 mg/kg single, 24 h before, cycle 8 days): 60%
- Relative remission rate ([1]; Example 357, Etoposide and cisplatin intravenous injection 50 (E) 5 (Cis) mg/kg single, CDK inhibitor intravenous injection 125 mg/kg single, 4 h before, cycle 7 days): 20%
- Relative remission rate ([1]; Example 357, Etoposide and cisplatin intravenous injection 50 (E) 5 (Cis) mg/kg single, CDK inhibitor oral 125 mg/kg single, 4 h before, cycle 7 days): 70%
- Relative remission rate ([1]; Example 358, Etoposide and cisplatin intravenous injection 50 (E) 5 (Cis) mg/kg single, CDK inhibitor intravenous injection 125 mg/kg single, 24 h before, cycle 7 days): 10%
- Relative remission rate ([1]; Example 358, Etoposide and cisplatin intravenous injection 50 (E) 5 (Cis) mg/kg single, CDK inhibitor oral 125 mg/kg single, 24 h before, cycle 7 days): 40%
- Relative remission rate ([1]; Example 366, Carboplatin (CBP) oral administration 200 mg/kg single, CDK inhibitor intravenous injection 150 mg/kg single, 24 h before, cycle 10 days): 10%
- Relative remission rate ([1]; Example 366, Carboplatin (CBP) oral administration 200 mg/kg single, CDK inhibitor oral 150 mg/kg single, 24 h before, cycle 10 days): 50%
- Relative remission rate ([1]; Example 378, Gemcitabine (GEM) intravenous injection 120 mg/kg single, CDK inhibitor intravenous injection 200 mg/kg single, 12 h before, cycle 8 days): 10%
- Relative remission rate ([1]; Example 378, Gemcitabine (GEM) intravenous injection 120 mg/kg single, CDK inhibitor oral 200 mg/kg single, 12 h before, cycle 8 days): 50%
- Relative remission rate ([1]; Example 379, Gemcitabine (GEM) intravenous injection 120 mg/kg single, CDK inhibitor intravenous injection 200 mg/kg single, 12 h before, cycle 8 days): 20%
- Relative remission rate ([1]; Example 379, Gemcitabine (GEM) intravenous injection 120 mg/kg single, CDK inhibitor oral 200 mg/kg single, 12 h before, cycle 8 days): 60%
- Relative remission rate ([2]; Examples 444-447 (one value printed; 4 h, 6 h, 8 h, 12 h before), Fluorouracil (5-Fu) intraperitoneal injection 70 mg/kg once a day, for 3 days, for 3 days, cycle 10 days): 70%
- Relative remission rate ([2]; Examples 448-451 (one value printed; 4 h, 6 h, 8 h, 12 h before), Fluorouracil (5-Fu) intraperitoneal injection 70 mg/kg once a day, for 5 days, for 5 days, cycle 9 days): 60%
- Relative remission rate ([2]; Examples 462-465 (one value given; 2 h, 4 h, 6 h, 8 h before), Capecitabine oral administration 1000 mg/kg (printed 100/0 wrapped) once a day, for 7 days, for 7 days, cycle 14 days): 0%
- Relative remission rate ([2]; Examples 466-469 (one value given; 2 h, 4 h, 6 h, 8 h before), Capecitabine oral administration 1000 mg/kg (printed 100/0 wrapped) once a day, for 14 days, for 14 days, cycle 14 days): 10%
- Relative remission rate (%) ([3]; Example 1, Fluorouracil (5-Fu) intraperitoneal injection 125 mg/kg single, CDK inhibitor oral 150 mg/kg single 0.5 h before, cycle 10 days): 20%
- Relative remission rate (%) ([3]; Example 2, Fluorouracil (5-Fu) intraperitoneal injection 125 mg/kg single, CDK inhibitor oral 150 mg/kg single 1 h before, cycle 10 days): 20%
- Relative remission rate (%) ([3]; Example 3, Fluorouracil (5-Fu) intraperitoneal injection 125 mg/kg single, CDK inhibitor oral 150 mg/kg single 2 h before, cycle 10 days): 30%
- Relative remission rate (%) ([3]; Example 4, Fluorouracil (5-Fu) intraperitoneal injection 125 mg/kg single, CDK inhibitor oral 150 mg/kg single 3 h before, cycle 10 days): 40%
- Relative remission rate (%) ([3]; Example 5, Fluorouracil (5-Fu) intraperitoneal injection 125 mg/kg single, CDK inhibitor oral 150 mg/kg single 4 h before, cycle 10 days): 40%
- Relative remission rate (%) ([3]; Example 6, Fluorouracil (5-Fu) intraperitoneal injection 125 mg/kg single, CDK inhibitor oral 150 mg/kg single 5 h before, cycle 10 days): 50%
- Relative remission rate (%) ([3]; Example 7, Fluorouracil (5-Fu) intraperitoneal injection 125 mg/kg single, CDK inhibitor oral 150 mg/kg single 6 h before, cycle 10 days): 50%
- Relative remission rate (%) ([3]; Example 8, Fluorouracil (5-Fu) intraperitoneal injection 125 mg/kg single, CDK inhibitor oral 150 mg/kg single 7 h before, cycle 10 days): 60%
- Relative remission rate (%) ([3]; Example 9, Fluorouracil (5-Fu) intraperitoneal injection 125 mg/kg single, CDK inhibitor oral 150 mg/kg single 8 h before, cycle 10 days): 60%
- Relative remission rate (%) ([3]; Example 10, Fluorouracil (5-Fu) intraperitoneal injection 125 mg/kg single, CDK inhibitor oral 150 mg/kg single 9 h before, cycle 10 days): 50%
- Relative remission rate (%) ([3]; Example 11, Fluorouracil (5-Fu) intraperitoneal injection 125 mg/kg single, CDK inhibitor oral 150 mg/kg single 10 h before, cycle 10 days): 60%
- Relative remission rate (%) ([3]; Example 12, Fluorouracil (5-Fu) intraperitoneal injection 125 mg/kg single, CDK inhibitor oral 150 mg/kg single 11 h before, cycle 10 days): 70%
- Relative remission rate (%) ([3]; Example 13, Fluorouracil (5-Fu) intraperitoneal injection 125 mg/kg single, CDK inhibitor oral 150 mg/kg single 12 h before, cycle 10 days): 80%
- Relative remission rate (%) ([3]; Example 14, Fluorouracil (5-Fu) intraperitoneal injection 125 mg/kg single, CDK inhibitor oral 12.5 mg/kg single 13 h before, cycle 10 days): 40%
- Relative remission rate (%) ([3]; Example 15, Fluorouracil (5-Fu) intraperitoneal injection 125 mg/kg single, CDK inhibitor oral 25 mg/kg single 13 h before, cycle 10 days): 80%
- Relative remission rate (%) ([3]; Example 16, Fluorouracil (5-Fu) intraperitoneal injection 125 mg/kg single, CDK inhibitor oral 50 mg/kg single 13 h before, cycle 10 days): 60%
- Relative remission rate (%) ([3]; Example 17, Fluorouracil (5-Fu) intraperitoneal injection 125 mg/kg single, CDK inhibitor oral 100 mg/kg single 13 h before, cycle 10 days): 80%
- Relative remission rate (%) ([3]; Example 18, Fluorouracil (5-Fu) intraperitoneal injection 125 mg/kg single, CDK inhibitor oral 150 mg/kg single 13 h before, cycle 10 days): 80%
- Relative remission rate (%) ([3]; Example 19, Fluorouracil (5-Fu) intraperitoneal injection 125 mg/kg single, CDK inhibitor oral 250 mg/kg single 13 h before, cycle 10 days): 60%
- Relative remission rate (%) ([3]; Example 20, Fluorouracil (5-Fu) intraperitoneal injection 125 mg/kg single, CDK inhibitor oral 150 mg/kg single 14 h before, cycle 10 days): 70%
- Relative remission rate (%) ([3]; Example 21, Fluorouracil (5-Fu) intraperitoneal injection 125 mg/kg single, CDK inhibitor oral 150 mg/kg single 16 h before, cycle 10 days): 60%
- Relative remission rate (%) ([3]; Example 22, Fluorouracil (5-Fu) intraperitoneal injection 125 mg/kg single, CDK inhibitor oral 150 mg/kg single 18 h before, cycle 10 days): 60%
- Relative remission rate (%) ([3]; Example 23, Fluorouracil (5-Fu) intraperitoneal injection 125 mg/kg single, CDK inhibitor oral 150 mg/kg single 20 h before, cycle 10 days): 50%
- Relative remission rate (%) ([3]; Example 24, Fluorouracil (5-Fu) intraperitoneal injection 125 mg/kg single, CDK inhibitor oral 150 mg/kg single 22 h before, cycle 10 days): 40%
- Relative remission rate (%) ([3]; Example 25, Fluorouracil (5-Fu) intraperitoneal injection 125 mg/kg single, CDK inhibitor oral 150 mg/kg single 24 h before, cycle 10 days): 40%
- Relative remission rate (%) ([3]; Example 26, Fluorouracil (5-Fu) intraperitoneal injection 125 mg/kg single, CDK inhibitor oral 150 mg/kg single 48 h before, cycle 10 days): 0%
- Relative remission rate (%) ([3]; Example 44, Fluorouracil (5-Fu) oral administration 250 mg/kg single, CDK inhibitor oral 125 mg/kg single 4 h before, cycle 10 days): 60%
- Relative remission rate (%) ([3]; Example 88, Oxaliplatin intravenous injection 17.5 mg/kg single, CDK inhibitor oral 150 mg/kg single 6 h before, cycle 8 days): 50%
- Relative remission rate (%) ([3]; Example 129, Irinotecan (CPT-11) intravenous injection 200 mg/kg single, CDK inhibitor oral 200 mg/kg single 14 h before, cycle 7 days): 60%
- Relative remission rate (%) ([3]; Example 166, Docetaxel (DTX) intramuscular injection 20 mg/kg single, CDK inhibitor oral 150 mg/kg single 5 h before, cycle 8 days): 80%
- Relative remission rate (%) ([3]; Example 228, Etoposide 60 mg/kg and Carboplatin 5 mg/kg intraperitoneal injection single, CDK inhibitor oral 150 mg/kg single, 12 h before, 10 days): 60%
